# Laboratory results reported in US20240307283A1, “COMPOSITIONS AND METHODS FOR DECREASING PIGMENTATION” (The General Hospital Corporation, priority 2021, published 2024).
# Columns and labels:
# human skin explants = assay: Pigmentation of human skin explants with topical NNT inhibitors
# zebrafish melanocytes = assay: Chemical treatment of zebrafish, melanocytic brightness; format: in vivo; conditions: 24 hours, 100 μM 2,3BD or 50 μM DCC
# Description: Wildtype Tübingen zebrafish were placed in a 24 well plate at 72 hours post-fertilization, with 10 larvae per well for a total twenty larvae per condition. Larvae were treated for 24 hours with either 2,3BD (1 μM, 10 μM, 100 μM, 1 mM; Sigma Aldrich, #B85307), DCC (1 μM, 10 μM, 50 μM, 100 μM; Sigma Aldrich, #D80002), or DMSO (1:500) in E3 embryo medium. At 4 days post fertilization, larvae were imaged using a Nikon SMZ18 Stereomicroscope. Melanocytes from at least 5 zebrafish embryos of each group for each experiment were analyzed using the FIJI software enabling pixel-based color quantification.
# NNT = biological target: T1, NNT (Homo sapiens, UniProt Q13423); assay: GSH/GSSG ratio (indirect endpoint of NNT enzyme activity) in primary melanocytes; format: cell-based; set-up: endogenous in cells; host or cells: primary human melanocytes (isolated from neonatal foreskins); conditions: different doses, 24 hours
# T1 sequence (Q13423 44-1086): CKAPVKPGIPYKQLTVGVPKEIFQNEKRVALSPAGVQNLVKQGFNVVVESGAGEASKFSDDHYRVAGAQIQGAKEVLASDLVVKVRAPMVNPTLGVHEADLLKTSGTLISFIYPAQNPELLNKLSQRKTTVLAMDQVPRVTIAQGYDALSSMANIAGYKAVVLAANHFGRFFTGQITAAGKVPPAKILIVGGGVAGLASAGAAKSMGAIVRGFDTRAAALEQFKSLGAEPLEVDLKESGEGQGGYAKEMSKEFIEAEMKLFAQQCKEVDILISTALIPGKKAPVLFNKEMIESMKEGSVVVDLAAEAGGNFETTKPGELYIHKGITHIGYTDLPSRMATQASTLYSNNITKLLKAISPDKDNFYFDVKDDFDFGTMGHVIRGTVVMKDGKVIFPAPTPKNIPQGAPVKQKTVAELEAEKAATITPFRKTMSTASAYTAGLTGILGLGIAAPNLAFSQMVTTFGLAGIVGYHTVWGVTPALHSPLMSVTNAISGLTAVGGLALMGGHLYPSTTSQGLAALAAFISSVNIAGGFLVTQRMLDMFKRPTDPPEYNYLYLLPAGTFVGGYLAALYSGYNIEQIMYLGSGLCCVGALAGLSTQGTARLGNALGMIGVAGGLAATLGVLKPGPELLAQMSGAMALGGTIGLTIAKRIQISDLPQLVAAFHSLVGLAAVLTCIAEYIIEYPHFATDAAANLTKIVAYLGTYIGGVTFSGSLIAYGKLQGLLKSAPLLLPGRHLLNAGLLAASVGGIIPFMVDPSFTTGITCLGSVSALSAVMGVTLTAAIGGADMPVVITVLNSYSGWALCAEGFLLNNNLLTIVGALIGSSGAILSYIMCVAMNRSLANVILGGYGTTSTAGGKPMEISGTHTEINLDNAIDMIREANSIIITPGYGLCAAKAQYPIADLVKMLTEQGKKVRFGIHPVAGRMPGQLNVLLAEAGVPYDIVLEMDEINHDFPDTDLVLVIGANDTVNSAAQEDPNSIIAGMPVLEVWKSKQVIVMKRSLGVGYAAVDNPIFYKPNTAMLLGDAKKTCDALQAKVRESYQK
# Description: Glutathione measurements: Cell lysates were prepared from equal numbers of cells after 24 h of DCC or 2,3BD treatment, following the manufacturer's protocols. Seventy-two h post siRNA treatment or overexpression of NNT and their corresponding controls, glutathione levels were determined using the GSH/GSSG-Glo assay (Promega, #V6611) and luminescence was measured using an EnVision 2104 Multilabel Reader (PerkinElmer).
smiles,measurement,setting,value
"CC(=O)C(C)=O [2,3BD, 2,3-Butanedione]",melanin by Fontana-Masson staining,"human skin explants; 2,3BD treated skin, FIGS. 3Ei and 10F",increased melanin
same,cell damage or inflammation by H&E staining,human skin explants; FIG. 3Eii,no obvious cell damage or inflammation
same,skin pigmentation,"human skin explants; abdominal skin, phototype 1-2, single topical treatment 1M or 11M, after 5 days",strong induction of pigmentation
same,skin pigmentation,"human skin explants; daily application of 50 mM, skin type 3-4, after 5 days",significantly increased pigmentation
same,darkening of zebrafish embryos (melanocytic brightness),zebrafish melanocytes,significant darkening
same,GSH/GSSG ratio,NNT,decreased GSH/GSSG ratios
